Our source for the EC50 and IC50 values is patent US20160002204A1 (Board of Regents, The University of Texas System, priority 2014, published 2016).

By EC50 is commonly meant the concentration that produces a half-maximal response. A high value points to a less potent agent. In general, IC50 refers to the point on the concentration scale where inhibition reaches its midpoint.

Each structure is given as a SMILES string.

The test system of one experiment is A549 cells. Description: A549 proliferation (viability) assay, Cell Titer Fluor, 72 hours. To be noted: Homo sapiens. The format is cell-based. In outline: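 Seed A549 at 1000 cells/well and culture 24 h. Add compound (final DMSO 0.5%) and incubate 72 h at 37 °C. Add Cell Titer Fluor, mix 15 min, incubate 30 min, read fluorescence and fit EC50 by four-parameter logistic.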

The target in experiment [1] is T1, GLS1 (purified recombinant human GAC) (Homo sapiens, UniProt O94925).
T1 sequence (O94925 55-598 isoform O94925-3 limits assumed): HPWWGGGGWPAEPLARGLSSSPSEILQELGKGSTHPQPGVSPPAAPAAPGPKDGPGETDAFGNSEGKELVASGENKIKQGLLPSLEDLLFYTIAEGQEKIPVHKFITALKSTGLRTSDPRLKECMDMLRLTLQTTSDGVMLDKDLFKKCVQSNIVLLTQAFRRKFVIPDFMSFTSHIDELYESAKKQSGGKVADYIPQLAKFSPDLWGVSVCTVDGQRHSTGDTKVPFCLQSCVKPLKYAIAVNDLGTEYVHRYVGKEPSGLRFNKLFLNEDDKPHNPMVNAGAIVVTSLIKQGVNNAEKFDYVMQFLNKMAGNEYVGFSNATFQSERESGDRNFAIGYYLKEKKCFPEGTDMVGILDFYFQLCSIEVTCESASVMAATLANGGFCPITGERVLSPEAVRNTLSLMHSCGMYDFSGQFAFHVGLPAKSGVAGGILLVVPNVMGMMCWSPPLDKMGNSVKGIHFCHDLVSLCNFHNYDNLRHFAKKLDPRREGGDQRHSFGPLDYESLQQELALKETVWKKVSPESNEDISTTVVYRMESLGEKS
Description: GLS1 enzymatic activity assay (dual-coupled, Amplex UltraRed/resorufin). The format is biochemical. Put shortly:
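Recombinant human GAC (2 nM) preincubated with 50 mM potassium phosphate, then inhibitor (10 min each, RT); 1 mM glutamine, pH 7.4 Hepes buffer, 1% DMSO. Glutamate coupled via glutamate oxidase/HRP to resorufin (Ex 530/Em 590), kinetic or 20-min endpoint; IC50 by four-parameter logistic fit.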

Take `O=C(Cc1ccccc1)Nc1cnn(CCCCn2cc(C(=O)NCc3cccc(OC(F)(F)F)c3)nn2)c(=O)c1` [Example 172, 1-{4-[6-oxo-4-(2-phenylacetamido)-1,6-dihydropyridazin-1-yl]butyl}-N-{[3-(trifluoromethoxy)phenyl]methyl}-1H-1,2,3-triazole-4-carboxamide]: the EC50 in the experiment with A549 cells lay in the range of 0.5 to 5 µM. The IC50 in experiment [1] was in the range of 0.1 to 0.5 µM.

In turn, `COc1cccc(CC(=O)Nc2ccn(CCC(F)Cn3cc(C(=O)NCc4cccc(OC(F)(F)F)c4)nn3)c(=O)c2)n1` (stereo not drawn) [Example 251, 1-(2-fluoro-4-{4-[2-(6-methoxypyridin-2-yl)acetamido]-2-oxo-1,2-dihydropyridin-1-yl}butyl)-N-{[3-(trifluoromethoxy)phenyl]methyl}-1H-1,2,3-triazole-4-carboxamide] had a concentration for a half-maximal effect (EC50) in the experiment on A549 cells of 0.1 to 0.5 µM. Besides, the IC50 in experiment [1] was less than 0.1 µM.

Take `O=C(CN1CCCC1)Nc1ccn(CCC(F)Cn2cc(C(=O)NCc3cccc(OC(F)(F)F)c3)nn2)c(=O)c1` (stereo not drawn) [Example 270, 1-(2-fluoro-4-{2-oxo-4-[2-(pyrrolidin-1-yl)acetamido]-1,2-dihydropyridin-1-yl}butyl)-N-{[3-(trifluoromethoxy)phenyl]methyl}-1H-1,2,3-triazole-4-carboxamide]: the EC50 in the experiment on A549 cells fell in the range of 0.5 to 5 µM. In experiment [1], the IC50 is 0.1 to 0.5 µM.

The compound `O=C(Cc1cccc(OC(F)(F)F)c1)Nc1ccn(CCCCc2nnc(NC(=O)[C@@H](O)c3ccccc3)s2)c(=O)n1` [Example 80, (2S)-2-hydroxy-N-{5-[4-(2-oxo-4-{2-[3-(trifluoro-methoxy)phenyl]acetamido}-1,2-dihydropyrimidin-1-yl)butyl]-1,3,4-thiadiazol-2-yl}-2-phenylacetamide] showed an EC50 with A549 cells of 0.1 to 0.5 µM. Besides, in experiment [1], the IC50 is less than 0.1 µM.

As to `O=C(Nc1ccn(CCC(F)Cn2cc(C(=O)NCc3cc(C(F)(F)F)ccn3)nn2)c(=O)n1)OCc1ccccc1F` (stereo not drawn) [Example 501, (2-fluorophenyl)methyl N-(1-{3-fluoro-4-[4-({[4-(trifluoromethyl)pyridin-2-yl]methyl}carbamoyl)-1H-1,2,3-triazol-1-yl]butyl}-2-oxo-1,2-dihydropyrimidin-4-yl)carbamate], the EC50 with A549 cells was in the range of 0.1 to 0.5 µM. The IC50 in experiment [1] was less than 0.1 µM.

Compound `O=C(NCc1cc(C(F)(F)F)ccn1)c1cn(CC(F)CCn2ccc(COc3ccccc3F)cc2=O)nn1` (stereo not drawn) [Example 487, 1-{2-fluoro-4-[4-(2-fluorophenoxymethyl)-2-oxo-1,2-dihydropyridin-1-yl]butyl}-N-{[4-(trifluoromethyl)pyridin-2-yl]methyl}-1H-1,2,3-triazole-4-carboxamide] yielded an EC50 in the experiment on A549 cells of 0.1 to 0.5 µM. In addition, the IC50 in experiment [1] was in the range of 0.1 to 0.5 µM.

In turn, `O=C(CN1CC(F)(F)C1)Nc1ccn(CCC(F)Cn2cc(C(=O)NCc3cccc(OC(F)(F)F)c3)nn2)c(=O)c1` (stereo not drawn) [Example 232, 1-(4-{4-[2-(3,3-difluoroazetidin-1-yl)acetamido]-2-oxo-1,2-dihydropyridin-1-yl}-2-fluorobutyl)-N-{[3-(trifluoromethoxy)phenyl]methyl}-1H-1,2,3-triazole-4-carboxamide] yielded an EC50 with A549 cells of 0.1 to 0.5 µM. Also, in experiment [1], the concentration for half-maximal inhibition (IC50) is less than 0.1 µM.

On to `O=C(CC1CCCC1)Nc1cnn(CCC(F)Cn2cc(C(=O)NCc3cccc(OC(F)(F)F)c3)nn2)c(=O)c1` (stereo not drawn) [Example 386, 1-(4-(4-(2-cyclopentylacetamido)-6-oxopyridazin-1(6H)-yl)-2-fluorobutyl)-N-(3-(trifluoromethoxy)benzyl)-1H-1,2,3-triazole-4-carboxamide], for which the EC50 in the experiment on A549 cells was in the range of 0.1 to 0.5 µM. The IC50 in experiment [1] was less than 0.1 µM.

Compound `O=C(Cc1ccccc1)Nc1ccn(CCC(F)Cn2cc(C(=O)NCc3cc(Br)ccn3)nn2)c(=O)c1` (stereo not drawn) [Example 163, N-[(4-bromopyridin-2-yl)methyl]-1-{2-fluoro-4-[2-oxo-4-(2-phenylacetamido)-1,2-dihydropyridin-1-yl]butyl}-1H-1,2,3-triazole-4-carboxamide] registered an EC50 in the experiment on A549 cells of 0.1 to 0.5 µM. Further, the IC50 in experiment [1] was less than 0.1 µM.

As to `O=C(CC1CCC1)Nc1ccn(CCC(F)Cn2cc(C(=O)NCc3ccc(C(F)(F)F)cn3)nn2)c(=O)c1F` (stereo not drawn) [Example 390, 1-{4-[4-(2-cyclobutylacetamido)-3-fluoro-2-oxo-1,2-dihydropyridin-1-yl]-2-fluorobutyl}-N-{[5-(trifluoromethyl)pyridin-2-yl]methyl}-1H-1,2,3-triazole-4-carboxamide], in the experiment with A549 cells, the 50% effective concentration (EC50) was less than 0.1 µM. Besides, the IC50 in experiment [1] is 0.1 to 0.5 µM.

Turning to `O=C(Cc1ccccc1)Nc1ccn(CCC(F)Cn2cc(C(=O)NCc3ccc(CF)nc3)nn2)c(=O)c1F` (stereo not drawn) [Example 375, 1-{2-fluoro-4-[3-fluoro-2-oxo-4-(2-phenylacetamido)-1,2-dihydropyridin-1-yl]butyl}-N-{[6-(fluoro-methyl)pyridin-3-yl]methyl}-1H-1,2,3-triazole-4-carboxamide], the EC50 in the experiment on A549 cells is 0.5 to 5 µM. Also, in experiment [1], the IC50 was 0.1 to 0.5 µM.

In the case of `O=C(Nc1ccn(CCCCn2cc(C(=O)NCc3cccc(OC(F)(F)F)c3)nn2)c(=O)c1)OCc1ccccc1` [Example 42, benzyl N-(2-oxo-1-{4-[4-({[3-(trifluoromethoxy)phenyl]methyl}carbamoyl)-1H-1,2,3-triazol-1-yl]butyl}-1,2-dihydropyridin-4-yl)carbamate], the EC50 in the experiment with A549 cells is 0.1 to 0.5 µM. For the same compound, the IC50 in experiment [1] is less than 0.1 µM.

The compound `CC(C)(C)OC(=O)Nc1ccn(CCC(F)Cn2cc(C(=O)NCc3cccc(OC(F)(F)F)c3)nn2)c(=O)c1F` (stereo not drawn) [Example 226, tert-butyl N-(3-fluoro-1-{3-fluoro-4-[4-({[3-(trifluoro-methoxy)phenyl]methyl}carbamoyl)-1H-1,2,3-triazol-1-yl]butyl}-2-oxo-1,2-dihydropyridin-4-yl)carbamate] returned an EC50 in the experiment with A549 cells of less than 0.1 µM. Moreover, in experiment [1], the IC50 was less than 0.1 µM.

For the compound `O=C(NCc1cc(C(F)(F)F)ccn1)c1cn(CC(F)CCn2ccc(Cn3ccccc3=O)cc2=O)nn1` (stereo not drawn) [Example 494, 1-(2-fluoro-4-{2-oxo-4-[(2-oxo-1,2-dihydropyridin-1-yl)methyl]-1,2-dihydropyridin-1-yl}butyl)-N-{[4-(trifluoromethyl)pyridin-2-yl]methyl}-1H-1,2,3-triazole-4-carboxamide], the 50% effective concentration (EC50) in the experiment on A549 cells was more than 5 µM. Also, in experiment [1], the IC50 fell in the range of 0.5 to 5 µM.

On to `O=C(Cc1nccs1)Nc1ccn(CCC(F)Cn2cc(C(=O)NCc3cccc(OC(F)(F)F)c3)nn2)c(=O)c1` (stereo not drawn) [Example 252, 1-(2-fluoro-4-{2-oxo-4-[2-(1,3-thiazol-2-yl)acetamido]-1,2-dihydropyridin-1-yl}butyl)-N-{[3-(trifluoromethoxy)phenyl]methyl}-1H-1,2,3-triazole-4-carboxamide], for which, in the experiment with A549 cells, the EC50 was in the range of 0.1 to 0.5 µM. The IC50 in experiment [1] is less than 0.1 µM.

In the experiment with A549 cells, `O=C(Cc1ccccc1)Nc1ccn(CC[C@H](F)Cn2cc(C(=O)NCc3cccc(C(F)(F)F)n3)nn2)c(=O)c1F` [Example 126, (S)-1-(2-fluoro-4-(3-fluoro-2-oxo-4-(2-phenylacetamido)pyridin-1(2H)-yl)butyl)-N-((6-(trifluoromethyl)pyridin-2-yl)methyl)-1H-1,2,3-triazole-4-carboxamide] yielded an EC50 of 0.1 to 0.5 µM. Further, the IC50 in experiment [1] was less than 0.1 µM.

In the case of `O=C(NCc1cccc(OC(F)(F)F)c1)c1cn(CC(F)CCn2ccc(COc3c(F)cccc3F)cc2=O)nn1` (stereo not drawn) [Example 474, 1-{4-[4-(2,6-difluorophenoxymethyl)-2-oxo-1,2-dihydropyridin-1-yl]-2-fluorobutyl}-N-{[3-(trifluoromethoxy)phenyl]methyl}-1H-1,2,3-triazole-4-carboxamide], the EC50 in the experiment with A549 cells lay within 0.1 to 0.5 µM. For the same compound, in experiment [1], the IC50 is less than 0.1 µM.

In the case of `O=C(CC1CCCC1)Nc1ccn(CCC(F)Cn2cc(C(=O)NCc3ccccn3)nn2)c(=O)c1F` (stereo not drawn) [Example 393, 1-{4-[4-(2-cyclopentylacetamido)-3-fluoro-2-oxo-1,2-dihydropyridin-1-yl]-2-fluorobutyl}-N-(pyridin-2-ylmethyl)-1H-1,2,3-triazole-4-carboxamide], the EC50 in the experiment on A549 cells was less than 0.1 µM. For the same compound, the IC50 in experiment [1] was less than 0.1 µM.

In turn, `O=C(Cc1ccccc1)Nc1ccn(CCCCc2nnc(NC(=O)Cc3ccccc3)s2)c(=O)c1` [Example 31, N-(2-oxo-1-{4-[5-(2-phenylacetamido)-1,3,4-thiadiazol-2-yl]butyl}-1,2-dihydropyridin-4-yl)-2-phenylacetamide] yielded a half-maximal effective concentration (EC50) in the experiment with A549 cells of 0.5 to 5 µM. For the same compound, in experiment [1], the IC50 was less than 0.1 µM.

Turning to `O=C(Cc1ccccc1)Nc1ccn(CCCCc2nnc(C(=O)NCc3ccccn3)s2)c(=O)c1` [Example 445, 5-{4-[2-oxo-4-(2-phenylacetamido)-1,2-dihydropyridin-1-yl]butyl}-N-(pyridin-2-ylmethyl)-1,3,4-thiadiazole-2-carboxamide], in the experiment with A549 cells, the EC50 fell in the range of 0.5 to 5 µM. For the same compound, in experiment [1], the IC50 was 0.1 to 0.5 µM.

As to `O=C(Cc1ccccc1)Nc1ccn(CCCCc2nnc(NC(=O)NCc3ccccc3)s2)c(=O)c1F` [Example 129, N-(1-(4-(5-(3-benzylureido)-1,3,4-thiadiazol-2-yl)butyl)-3-fluoro-2-oxo-1,2-dihydropyridin-4-yl)-2-phenylacetamide], in the experiment on A549 cells, the 50% effective concentration (EC50) was in the range of 0.5 to 5 µM. The IC50 in experiment [1] is less than 0.1 µM.
